Reference: US20250179481A1, “COMPOSITIONS AND METHODS FOR TARGETING, EDITING, OR MODIFYING GENES” (Celyntra Therapeutics SA, priority 2021, published 2025)

Assays:
CD247 = test: gNA validation: frameshift (ORF disruption) frequency, CD247; format: cell-based, human; conditions: Jurkat, CRISPResso2 ORF analysis
Experimental: Initial quality assessment of the obtained reads was performed with FastQC36. The sequencing data were aligned and analyzed with the CRISPResso2 software, using CRISPRessoBatch command with the parameters—cleavage_offset 1—quantification_window_size 10—quantification_window_center 1—expand_ambiguous_alignments for the INDEL frequency analysis. For the ORF disruption analysis, CRISPRessoBatch command with the parameters—cleavage_offset 1—coding_seq <EXON_SEQ>—quantification_window_size 0—quantification_window_center 1—expand_ambiguous_alignments was used. Modification rates from the CRISPResso2 software output were analyzed in Excel.
(§1) High-efficiency gNAs identified in our initial analysis were validated by assaying INDEL frequency for the top three or five gNAs for each of the selected immunologically relevant genes (FIG. 15). […] Alternating grey and white zones on the plot represent groups of three to five high-efficiency gNAs per locus. […] Using the CRISPresso2 software, the degree of open reading frame (ORF) disruption for each of the validated gNAs was estimated (FIG. 15). In addition, for four high-efficiency gNAs targeting three different exons at the PDCD1 locus, surface expression of the PDCD1 protein was measured by flow cytometry 4, 7, and 11 days post-transfection (data not shown).
Average fraction of INDELs leading to frameshifts (dashed line) is approx. 66%. […]

AAVS1 locus = test: INDEL frequency at the AAVS1 locus in Jurkat cells; format: cell-based, human; conditions: MAD7 RNP
Excerpt: The Jurkat T-cell leukemia cell line was used to evaluate the transgene insertion and expression efficiency using CRISPR-MAD7 RNP complexes. […] Specifically. […] Dark grey bars represent mean INDEL frequency using crAAVS1. Light grey bars represent mean modification frequency using crIDTneg (IDT). The HDR inserts comprised eight promoters (Table 4) differing in both size and promoter strength to drive GFP expression (FIG. 21). […] Specifically. […] HDR templates consisting of eight different promoters and flanked with symmetric homology arms of 500 base pairs in the amount of 0.5 μg μL^−1 were used. Size of promoters in base pairs: CMV, 1400; SCP, 970; CMVe-SCP, 1270; CMVmax, 1830; JET. 1100; CAG, 2600; PGK, 1410; EF-1a, 2090. Dark grey bars and circles present mean insertion frequency and cell viability using crAAVS1. Light grey bars represent mean insertion frequency and cell viability using crIDTneg (IDT).

AAVS1 = test: CAR insertion efficiency at AAVS1 in primary T-cells; format: cell-based, human
Experimental: T-cells were isolated from human peripheral blood obtained from healthy adults by immune-magnetic negative selection using the EasySep Human T-cell Isolation Kit ([sequence] Technologies). After isolation, T-cells were activated in 25 μL mL^−1 ImmunoCult Human CD3/CD28/CD2 T-Cell Activator ([sequence] Technologies) in ImmunoCult-XF T-Cell Expansion Medium ([sequence] Technologies) containing 12.5 ng mL^−1 Human Recombinant IL-2, 5 ng mL^−1 IL-7, and 5 ng mL^−1 IL-15 ([sequence] Technologies) and seeded at 1.0×10^6 cells mL^−1. Until transfection 48 hours later, the cells were cultured at 37° C., in 5% CO2 incubators.
Donor templates comprising site-specific homology arms, respective promoter, and respective gene (GFP or Hu19 scFv-CD8a-CD28-CD3ζ CAR) were amplified from corresponding pTwist Ampicillin high-copy plasmids (Twist Bioscience) using homology arms-specific PCR primers. […] Purified HDR templates were collected and quantified on NanoDrop One Microvolume UV-Vis Spectrophotometer (ThermoFisher Scientific). […] HDR templates were collected, diluted, and concentrations quantified using Qubit dsDNA HS Assay Kit (ThermoFisher Scientific). […]

[1] = test system: predicted off-target sites; test: INDEL frequency at predicted off-target sites (CasOFFinder, targeted deep sequencing) in Jurkat cells; format: cell-based, human; conditions: crPDCD1: <=4 mismatches, remaining gNAs <=3 mismatches, vs MOCK, Pairwise T-test
Experimental: Another consideration for selecting gNAs is the potential for off-target cleavage events. The list of validated gNAs was analyzed using the CasOFFinder software to predict potential off-target editing sites in the genome with up to four mismatches between the gNA and the target DNA sequence. Using the Bioconductor R packages, the predicted off-target sites were matched with the human gene database, and those sites that targeted exons and introns within the genes were extracted. Afterwards, the degree of editing activity at these sites was examined by targeted next-generation sequencing, more specifically, at 25 predicted off-target sites for the top-two PDCD1 gNAs, i.e., crPDCD1_1 and crPDCD1_2. […] INDEL frequency at 43 putative off-target sites with up to three mismatches between gNA and target DNA sequence were assayed for the top-two gNAs targeting seven remaining genes (i.e., TIM3, LAG3, TIG1T, CTLA4, PTPN6, PTPN11, and CD247; spacer sequences in Table 5). […] Specifically. FIGS. 18-19 show INDEL frequency of MAD7 (n=3; Mean±SD) in T-cell leukemic cell line at predicted off-target sites analyzed by targeted deep sequencing. For crPDCD1. INDEL frequency was analyzed at the putative off-target editing sites with ≤4 mismatches between the gNA and target DNA sequence, and with ≤3 mismatches on the remaining gNAs.

[2] = test system: PDCD1, TIM3, LAG3, TIG1T, CTLA4, PTPN6, PTPN11 and CD247; test: gNA screen: INDEL frequency at eight loci in Jurkat T-cell leukemia cell line; format: cell-based, human; conditions: gNAs adjacent to all YTTN PAM variants
Experimental: Ribonucleoprotein complexes (RNPs) were generated by incubating respective guide nucleic acids (gNAs) with MAD7 in the molar ratio of 3:2 gNA: MAD7 for 15 minutes at room temperature immediately before transfection. For Jurkat experiments, the RNP complexes were generated by mixing the respective gNA ([…]), MAD7 ([…]), and nuclease-free water, unless otherwise stated.
Lonza 4D Nucleofector with Shuttle unit (V4SC-2960 Nucleocuvette Strips) was used for transfection, following the manufacturer's instructions. […]
Extracted genomic DNA was quantified using the NanoDrop (ThermoFisher Scientific). […] The DNA was eluted from the beads with nuclease-free water and the size of the purified amplicons analyzed on a 2% agarose E-gel using the E-gel electrophoresis system (ThermoFisher Scientific). In the second PCR, unique pairs of Illumina-compatible indexes (Nextera XT Index Kit v2) were added to the amplicons using the KAPA HiFi HotStart Ready Mix (Roche). […] Sizes of the purified DNA fragments were validated on a 2% agarose gel using the E-gel electrophoresis system (ThermoFisher Scientific), quantified using Qubit dsDNA HS Assay Kit (Thermo Fisher) and then pooled in equimolar concentrations. […] The final library was sequenced on Illumina MiSeq System using the MiSeq Reagent Kit v.2 (300 cycles, […], paired-end reads). […]

PDCD1 protein = test: Surface expression of the PDCD1 protein by flow cytometry in Jurkat cells; format: cell-based, human; conditions: flow cytometry 4, 7 and 11 days post-transfection, crPDCD1_2 value at day 4, same at day 11
Experimental: For detection of PDCD1 knock-out efficiency, approx. 250,000 Jurkat cells per sample were transferred onto 96-well V-bottom cell culture plates and assessed following a series of consecutive washing and staining steps. The first step included centrifuging the cells at 300 g for 5 minutes at 4° C., and discarding the supernatant. Afterwards, the cells were stained using 100 μL Cell Staining Buffer (Biolegend) with APC/Cyanine7 anti-human CD279 (PD-1) antibody (1:100: Biolegend) and incubated for 30 minutes at 4° C., in the dark. The cells were then centrifuged at 300 g for 5 minutes at 4° C., and the supernatant discarded. The next step included two repeats of centrifugation at 300 g for 5 minutes at 4° C., supernatant removal, and cell washing in 150 μL ice-cold Cell Staining Buffer (Biolegend). In the final step, the cells were re-suspended in 100 μL Cell Staining Buffer for the flow cytometry measurements (excitation: red laser; emission: […]).
as §1

primary Pan-T donors = conditions: primary Pan-T cells, RNP + ssODN, M3814 for 24 hours after transfection
Experimental: The targeted ssODN template (Table 11) was transfected with RNPs in three primary Pan-T donors. Cell pools were harvested post recovery for genotypic evaluation (i.e. modification incorporation via NGS) and also functional analysis (FACS staining).
Conditions were the same as Example 1, and in addition after transfection the cells were treated with the HDR enhancer M3814 for 24 hours to block the NHEJ pathway and 5 thereby increase the incorporation of the ssODN at the on-target side.

## crCD247_4: validated high-efficiency gNA, CD247 (guide CTAGCAGAGAAGGAAGAACCC; spacer only, further chemistry not given here)
CD247
  frameshifts frequency (fraction of frameshift to INDEL): 97%

## crAAVS1: highly active gNA targeting the AAVS1 safe-harbor locus, spacer sequence in Table 5 (guide TTAGGATGGCCTTCTCCGACG; spacer only, further chemistry not given here)
AAVS1 locus
  INDEL frequency at the AAVS1 locus: highly active

## poly-L-glutamic acid [PGA]
AAVS1; primary T-cells, P<=0.05, data not shown
  CAR insertion efficiency, treatment with PGA compared to without PGA: higher

## crPDCD1_1: top-two PDCD1 gNA (guide GCACGAAGCTCTCCGATGTGT; spacer only, further chemistry not given here)
[1]
  INDEL frequency at predicted off-target sites: No significant INDEL frequency

## MAD7: type V-A Cas nuclease, SEQ ID NO: 37
[2]
  editing by PAM motif: editing with all eight combinations of YTTN PAM

## crPDCD1_2: gNA targeting the PDCD1 gene at the extracellular domain of the protein (guide TCTGCAGGGACAATAGGAGCC; spacer only, further chemistry not given here)
[1]
  INDEL frequency at predicted off-target sites: low-level off-target activity
PDCD1 protein
  surface expression of the PDCD1 protein: 10%

## COc1ccc([C@@H](O)c2cc(-c3ncnc4cc(N5CCOCC5)ccc34)c(F)cc2Cl)nn1 [M3814]
Primary Pan-T donors
  increase in perfect HDR: 1.5 fold
AAVS1
  more efficient CAR insertion than other experiments: ~5 times
